pKi: −log10 of the molar value. Where “and” joins values, the source holds several entries; their conditions need not be identical. Identical values can stand only once.
Key:
[1] = target: T1, alpha 1 adrenergic; assay: Radioligand receptor binding assay, alpha 1 adrenergic (second line); conditions: alpha 1 adrenergic (second line, r13)
T1 construct: Ki; other: alpha 1 adrenergic (second line, r13)
Procedure: (§1) [^3H] […] The reactions are incubated at room temperature for 3 hr. and then counted in a Trilux Microbeta™ scintillation counter to detect receptor-bound radioligand. Binding data is analyzed by computer-assisted 4 parameter fit analysis (ID Business Solutions Ltd, Guildford, Surrey, UK). […]
(§2) Affinity for other serotonin receptor subtypes as well as for alpha 1 & 2 adrenergic receptors can readily be determined by modification of the above described radioligand receptor binding assay using membranes derived from cells stably expressing the desired receptor subtype including the 5-HT1A, 5-HT1B, and 5-HT1D subtypes, as well as the 5-HT2A, 5-HT2B, 5-HT2C, 5-HT4, 5-HT5, and 5-HT6 receptor subtypes. […] The binding affinities of compounds of the present invention may be determined at these additional receptor types and are found to generally have selectivity ratios ≧2.0 against other serotonergic receptors. […]

[2] = target: T2, 5-HT5 (Homo sapiens, UniProt P47898); assay: Radioligand receptor binding assay, 5-HT5
T2 construct: expressed in transfected cells
Procedure: as §1, §2

[3] = target: T3, 5-HT1D (Homo sapiens, UniProt P28221); assay: Radioligand receptor binding assay, 5-HT1D
T3 construct: expressed in transfected cells
Procedure: as §1, §2

[4] = target: T4, 5-HT1B (Homo sapiens, UniProt P28222); assay: Radioligand receptor binding assay, 5-HT1B
T4 construct: expressed in transfected cells
Procedure: as §1, §2

[5] = target: T5, 5-HT2C (Homo sapiens, UniProt P28335); assay: Radioligand receptor binding assay, 5-HT2C
T5 construct: expressed in transfected cells
T5 sequence (P28335 33-458): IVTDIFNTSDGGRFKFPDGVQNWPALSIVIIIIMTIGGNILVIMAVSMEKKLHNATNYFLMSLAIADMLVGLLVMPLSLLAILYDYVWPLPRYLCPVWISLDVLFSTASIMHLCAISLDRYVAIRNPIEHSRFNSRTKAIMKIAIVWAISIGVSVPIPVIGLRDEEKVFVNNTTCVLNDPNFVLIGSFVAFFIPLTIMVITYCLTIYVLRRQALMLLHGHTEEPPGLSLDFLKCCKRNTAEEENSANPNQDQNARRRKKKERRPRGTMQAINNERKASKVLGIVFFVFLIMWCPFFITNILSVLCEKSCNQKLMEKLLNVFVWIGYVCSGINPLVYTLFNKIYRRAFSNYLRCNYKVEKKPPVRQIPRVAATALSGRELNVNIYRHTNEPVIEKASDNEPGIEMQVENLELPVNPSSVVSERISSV
Procedure: as §1, §2

[6] = target: T6, 5-HT6 (Homo sapiens, UniProt P50406); assay: Radioligand receptor binding assay, 5-HT6
T6 construct: expressed in transfected cells
Procedure: as §1, §2

[7] = target: T7, 5-HT2B (Homo sapiens, UniProt P41595); assay: Radioligand receptor binding assay, 5-HT2B
T7 construct: expressed in transfected cells
Procedure: as §1, §2

[8] = target: T8, 5-HT1A (Homo sapiens, UniProt P08908); assay: Radioligand receptor binding assay, 5-HT1A
T8 construct: expressed in transfected cells
T8 sequence (P08908 1-422): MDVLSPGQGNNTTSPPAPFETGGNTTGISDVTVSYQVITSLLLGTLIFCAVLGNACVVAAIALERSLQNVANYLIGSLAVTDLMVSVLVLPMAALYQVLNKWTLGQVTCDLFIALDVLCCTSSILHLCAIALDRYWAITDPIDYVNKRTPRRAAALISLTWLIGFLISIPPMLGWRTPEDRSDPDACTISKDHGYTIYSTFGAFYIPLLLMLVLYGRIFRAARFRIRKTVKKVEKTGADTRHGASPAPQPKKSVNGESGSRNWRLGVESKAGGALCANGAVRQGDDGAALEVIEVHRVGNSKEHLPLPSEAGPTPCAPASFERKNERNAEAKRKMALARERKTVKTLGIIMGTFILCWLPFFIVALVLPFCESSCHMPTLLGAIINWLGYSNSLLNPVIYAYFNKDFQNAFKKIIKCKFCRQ
Procedure: as §1, §2

[9] = target: T9, 5-HT4 (Homo sapiens, UniProt Q13639); assay: Radioligand receptor binding assay, 5-HT4
T9 construct: expressed in transfected cells
Procedure: as §1, §2

[10] = target: T10, 5-HT2A (Homo sapiens, UniProt P28223); assay: Radioligand receptor binding assay, 5-HT2A
T10 construct: expressed in transfected cells
Procedure: as §1, §2

[11] = target: T11, alpha 1 adrenergic; assay: Radioligand receptor binding assay, alpha 1 adrenergic (first line); conditions: alpha 1 adrenergic (first line, r12)
T11 construct: Ki; other: alpha 1 adrenergic (first line, r12)
Procedure: as §1, §2

[12] = target: T12, 5-HT7 receptor (Homo sapiens, UniProt P34969); assay: 5-HT7 receptor affinity: radioligand binding assay ([3H]5-HT, SPA); conditions: [3H]5-HT competition binding
T12 construct: expressed in transfected cells; host or cells: AV-12 cells
Procedure: Membranes for affinity and antagonist activity assays are prepared essentially as follows. AV-12 cells, stably expressing the 5-HT7 receptor, are grown as a monolayer in 5×T-150 flasks in DMEM/F12 (3:1) 5% FBS, 20 mM HEPES, […], […]. After growing to 90% confluence the media is removed and replaced with Hybritech media containing 2% horse serum, […] dextran sulfate, 1 mg/mL nucellin, 1 mg/mL human transferrin (partially iron saturated), […], 20 mM HEPES, […] geneticin, 0.04% pluronic F68. The cells are grown overnight to condition the media. The next morning the conditioned media (˜150 mL total) is removed and set aside in a sterile container. The cells are trypsinized and collected in the conditioned media. Fresh suspension media is added to bring the total volume to 500 mL and a cell density of 5×10^5 cells/mL. […]
To prepare membranes, the above pellets are resuspended in ice-cold Tris buffer (20 mM Tris HCl, pH 7.4 at 23° C., 5 mM EDTA) and homogenized with a Wheaton tissue grinder. […] Protein concentrations are determined by the method of Bradford. […]
as §1

T12 sequence (P34969 whole entry): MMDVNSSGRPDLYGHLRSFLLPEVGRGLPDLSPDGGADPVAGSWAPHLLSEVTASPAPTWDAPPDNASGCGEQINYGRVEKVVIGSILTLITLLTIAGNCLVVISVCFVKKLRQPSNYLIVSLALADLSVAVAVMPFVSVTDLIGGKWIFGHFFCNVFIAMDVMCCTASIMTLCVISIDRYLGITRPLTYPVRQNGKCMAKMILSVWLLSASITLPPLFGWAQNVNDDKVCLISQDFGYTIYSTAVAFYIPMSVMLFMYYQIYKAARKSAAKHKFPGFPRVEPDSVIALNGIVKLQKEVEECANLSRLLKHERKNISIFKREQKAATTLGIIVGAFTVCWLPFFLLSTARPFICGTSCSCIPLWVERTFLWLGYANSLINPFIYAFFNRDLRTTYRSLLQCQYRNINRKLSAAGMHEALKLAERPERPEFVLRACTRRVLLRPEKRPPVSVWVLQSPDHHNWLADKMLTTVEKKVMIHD
T9 sequence (Q13639 whole entry, species assumed): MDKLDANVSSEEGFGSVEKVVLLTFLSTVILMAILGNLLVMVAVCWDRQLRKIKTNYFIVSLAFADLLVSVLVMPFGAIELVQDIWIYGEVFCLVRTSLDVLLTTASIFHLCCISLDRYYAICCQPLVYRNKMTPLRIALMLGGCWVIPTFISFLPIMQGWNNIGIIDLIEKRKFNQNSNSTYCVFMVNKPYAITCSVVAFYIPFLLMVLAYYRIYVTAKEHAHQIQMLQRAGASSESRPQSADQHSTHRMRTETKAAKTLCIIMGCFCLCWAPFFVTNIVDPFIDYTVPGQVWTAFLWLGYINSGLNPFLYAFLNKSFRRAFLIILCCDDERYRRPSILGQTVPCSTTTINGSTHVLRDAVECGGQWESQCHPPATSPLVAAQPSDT
T7 sequence (P41595 whole entry, species assumed): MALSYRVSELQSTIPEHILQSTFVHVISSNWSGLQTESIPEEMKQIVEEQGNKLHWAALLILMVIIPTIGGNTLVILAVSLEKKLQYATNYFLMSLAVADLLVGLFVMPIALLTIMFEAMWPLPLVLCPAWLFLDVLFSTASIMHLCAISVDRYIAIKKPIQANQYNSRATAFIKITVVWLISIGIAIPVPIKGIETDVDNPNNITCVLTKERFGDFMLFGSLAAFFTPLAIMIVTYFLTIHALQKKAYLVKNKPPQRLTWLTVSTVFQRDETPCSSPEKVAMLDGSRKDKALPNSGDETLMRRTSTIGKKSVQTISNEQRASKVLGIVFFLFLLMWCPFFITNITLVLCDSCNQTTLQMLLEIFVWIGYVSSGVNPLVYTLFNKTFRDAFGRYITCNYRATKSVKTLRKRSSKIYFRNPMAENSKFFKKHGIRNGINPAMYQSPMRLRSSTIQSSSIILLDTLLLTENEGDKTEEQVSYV
T2 sequence (P47898 whole entry, species assumed): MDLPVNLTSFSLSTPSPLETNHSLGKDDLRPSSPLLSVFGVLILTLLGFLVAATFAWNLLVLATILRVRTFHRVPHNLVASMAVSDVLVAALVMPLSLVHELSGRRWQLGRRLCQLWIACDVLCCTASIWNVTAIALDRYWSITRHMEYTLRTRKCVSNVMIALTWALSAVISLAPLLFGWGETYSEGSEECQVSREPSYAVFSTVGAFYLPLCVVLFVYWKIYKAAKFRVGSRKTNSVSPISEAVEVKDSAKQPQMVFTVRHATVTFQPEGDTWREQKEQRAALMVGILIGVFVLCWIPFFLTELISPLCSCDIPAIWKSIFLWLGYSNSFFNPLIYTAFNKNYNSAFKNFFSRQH
T4 sequence (P28222 whole entry, species assumed): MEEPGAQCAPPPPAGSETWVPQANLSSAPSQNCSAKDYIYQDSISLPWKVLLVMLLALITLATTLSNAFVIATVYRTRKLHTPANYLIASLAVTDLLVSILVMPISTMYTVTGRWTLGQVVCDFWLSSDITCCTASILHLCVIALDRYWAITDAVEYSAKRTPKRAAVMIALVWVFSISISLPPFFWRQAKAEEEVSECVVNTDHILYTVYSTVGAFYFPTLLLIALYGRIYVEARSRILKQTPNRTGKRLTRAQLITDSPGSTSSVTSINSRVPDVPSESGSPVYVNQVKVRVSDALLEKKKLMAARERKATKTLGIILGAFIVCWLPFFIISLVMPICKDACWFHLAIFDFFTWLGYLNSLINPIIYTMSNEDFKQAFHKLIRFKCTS
T3 sequence (P28221 whole entry, species assumed): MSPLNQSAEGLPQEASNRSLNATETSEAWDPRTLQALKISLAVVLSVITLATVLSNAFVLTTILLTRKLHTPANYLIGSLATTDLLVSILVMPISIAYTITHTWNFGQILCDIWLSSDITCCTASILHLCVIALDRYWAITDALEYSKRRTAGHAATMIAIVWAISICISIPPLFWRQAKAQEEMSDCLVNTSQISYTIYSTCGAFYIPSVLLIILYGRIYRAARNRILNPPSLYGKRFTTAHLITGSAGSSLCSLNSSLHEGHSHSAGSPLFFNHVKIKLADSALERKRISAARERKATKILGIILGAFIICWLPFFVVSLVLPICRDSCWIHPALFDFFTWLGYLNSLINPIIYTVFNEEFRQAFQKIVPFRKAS
T6 sequence (P50406 whole entry, species assumed): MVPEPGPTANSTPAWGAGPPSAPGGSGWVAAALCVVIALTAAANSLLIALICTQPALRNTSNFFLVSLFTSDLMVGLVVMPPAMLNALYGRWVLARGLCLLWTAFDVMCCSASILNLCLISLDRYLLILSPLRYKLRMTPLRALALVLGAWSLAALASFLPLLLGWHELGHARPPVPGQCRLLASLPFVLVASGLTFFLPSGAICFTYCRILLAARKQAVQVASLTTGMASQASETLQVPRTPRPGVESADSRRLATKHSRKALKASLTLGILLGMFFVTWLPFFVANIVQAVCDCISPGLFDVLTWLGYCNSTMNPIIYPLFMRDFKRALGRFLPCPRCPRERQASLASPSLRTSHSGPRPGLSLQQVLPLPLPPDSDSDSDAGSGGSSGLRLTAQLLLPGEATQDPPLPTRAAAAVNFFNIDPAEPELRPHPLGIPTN
T10 sequence (P28223 whole entry, species assumed): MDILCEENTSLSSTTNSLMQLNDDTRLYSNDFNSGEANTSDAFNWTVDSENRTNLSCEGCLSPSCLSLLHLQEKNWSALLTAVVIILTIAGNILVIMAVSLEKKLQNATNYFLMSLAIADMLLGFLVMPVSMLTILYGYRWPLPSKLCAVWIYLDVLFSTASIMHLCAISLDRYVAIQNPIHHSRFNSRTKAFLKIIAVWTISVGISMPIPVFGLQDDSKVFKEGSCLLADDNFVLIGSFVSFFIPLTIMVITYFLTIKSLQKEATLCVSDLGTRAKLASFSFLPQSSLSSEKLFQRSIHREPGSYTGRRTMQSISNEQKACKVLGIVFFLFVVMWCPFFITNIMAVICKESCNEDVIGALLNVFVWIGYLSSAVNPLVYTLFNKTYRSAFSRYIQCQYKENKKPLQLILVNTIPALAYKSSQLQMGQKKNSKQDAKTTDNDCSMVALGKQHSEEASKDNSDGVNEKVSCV

Structure (SMILES): Cn1cc(CN2CCN(c3nccnc3-c3cccc(F)c3F)CC2)cn1 [Example 142, 4-(1-Methyl-1H-pyrazol-4-ylmethyl)-3′-(2,3-difluorophenyl)-3,4,5,6-tetrahydro-2H-[1,2′]bipyrazine]
- pKi [1]: 6.03
- pKi [2]: < 5.15
- pKi [3]: < 5.62
- pKi [4]: < 5.45
- pKi [5]: < 5.09
- pKi [6]: < 5.75
- pKi [7]: < 5.50
- pKi [8]: 5.90
- pKi [9]: < 5.20
- pKi [10]: < 5.13
- pKi [11]: < 5.84
- pKi [12]: ~7.36 and 7.36
